Measurements: PubChem BioAssay (NCI)
Values joined by “and” are separate entries in the source; they are usually repeats but may differ in a detail not shown here. Equal values may be shown once.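 GI50: concentration for 50% inhibition of growth. TGI marks complete inhibition of growth.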

What was measured:
Assay in all cases: DTP human tumour cell line panel, 384-well format
LOX IMVI melanoma = test system: LOX IMVI melanoma
MALME-3M melanoma = test system: MALME-3M melanoma
COLO 205 colon = test system: COLO 205 colon
HCT-15 colon = test system: HCT-15 colon
NCI-H460 NSCLC = test system: NCI-H460 NSCLC
CAKI-1 renal = test system: CAKI-1 renal
OVCAR-4 ovarian = test system: OVCAR-4 ovarian
KM12 colon = test system: KM12 colon
SN12C renal = test system: SN12C renal
MDA-MB-468 breast = test system: MDA-MB-468 breast
SK-MEL-2 melanoma = test system: SK-MEL-2 melanoma
SF-539 CNS = test system: SF-539 CNS
M14 melanoma = test system: M14 melanoma
MOLT-4 leukemia = test system: MOLT-4 leukemia
MDA-MB-435 melanoma = test system: MDA-MB-435 melanoma
NCI-H226 lung = test system: NCI-H226 lung
SNB-19 CNS = test system: SNB-19 CNS
HL-60(TB) leukemia = test system: HL-60(TB) leukemia
SF-295 CNS = test system: SF-295 CNS
EKVX NSCLC = test system: EKVX NSCLC
SW-620 colon = test system: SW-620 colon
A498 renal = test system: A498 renal
IGROV1 ovarian = test system: IGROV1 ovarian
NCI-H322M lung = test system: NCI-H322M lung
UACC-257 melanoma = test system: UACC-257 melanoma
SNB-75 CNS = test system: SNB-75 CNS
SK-OV-3 ovarian = test system: SK-OV-3 ovarian
HCC-2998 colon = test system: HCC-2998 colon
RPMI-8226 leukemia = test system: RPMI-8226 leukemia
HS 578T breast = test system: HS 578T breast
HCT-116 colon = test system: HCT-116 colon
UACC-62 melanoma = test system: UACC-62 melanoma
TK-10 renal = test system: TK-10 renal
NCI/ADR-RES ovarian = test system: NCI/ADR-RES ovarian
UO-31 renal = test system: UO-31 renal
HOP-92 NSCLC = test system: HOP-92 NSCLC
CCRF-CEM leukemia = test system: CCRF-CEM leukemia
SK-MEL-5 melanoma = test system: SK-MEL-5 melanoma
ACHN renal = test system: ACHN renal
T-47D breast = test system: T-47D breast
BT-549 breast = test system: BT-549 breast
U251 glioblastoma = test system: U251 glioblastoma
DU-145 prostate = test system: DU-145 prostate
SF-268 CNS = test system: SF-268 CNS
MDA-MB-231 breast = test system: MDA-MB-231 breast
786-0 renal = test system: 786-0 renal
OVCAR-5 ovarian = test system: OVCAR-5 ovarian
A549 NSCLC = test system: A549 NSCLC
HT29 colon = test system: HT29 colon
HOP-62 NSCLC = test system: HOP-62 NSCLC
SK-MEL-28 melanoma = test system: SK-MEL-28 melanoma
OVCAR-3 ovarian = test system: OVCAR-3 ovarian
MCF7 breast = test system: MCF7 breast
RXF 393 renal = test system: RXF 393 renal
K-562 leukemia = test system: K-562 leukemia
NCI-H522 lung = test system: NCI-H522 lung
NCI-H23 lung = test system: NCI-H23 lung
PC-3 prostate = test system: PC-3 prostate
SR leukemia = test system: SR leukemia

CC1Cc2ccccc2N1C(=O)Cc1nc(N2CCOCC2)cc(=O)[nH]1 (stereo not drawn)
GI50 (LOX IMVI melanoma): 14.5 µM and 50.9 µM | TGI (LOX IMVI melanoma): 42.4 µM and > 100 µM | GI50 (MALME-3M melanoma): 14.3 µM and 23.3 µM | TGI (MALME-3M melanoma): 97.1 µM and > 100 µM | GI50 (COLO 205 colon): 53.8 µM and > 100 µM | TGI (COLO 205 colon): > 100 µM | GI50 (HCT-15 colon): 24.1 µM and 37.9 µM | TGI (HCT-15 colon): > 100 µM | GI50 (NCI-H460 NSCLC): 8.38 µM and 29.9 µM | TGI (NCI-H460 NSCLC): > 100 µM | GI50 (CAKI-1 renal): 4.84 µM and 12.7 µM | TGI (CAKI-1 renal): > 100 µM | GI50 (OVCAR-4 ovarian): > 100 µM and 74.9 µM | TGI (OVCAR-4 ovarian): > 100 µM | GI50 (KM12 colon): 13.5 µM and 72 µM | TGI (KM12 colon): 34.4 µM and > 100 µM | GI50 (SN12C renal): 4.74 µM and 22.6 µM | TGI (SN12C renal): > 100 µM | GI50 (MDA-MB-468 breast): 3.31 µM and 15.1 µM | TGI (MDA-MB-468 breast): 17.7 µM and 65.7 µM | GI50 (SK-MEL-2 melanoma): 63.2 µM and > 100 µM | TGI (SK-MEL-2 melanoma): > 100 µM | GI50 (SF-539 CNS): 22.4 µM and 59.7 µM | TGI (SF-539 CNS): > 100 µM | GI50 (M14 melanoma): > 100 µM and 71 µM | TGI (M14 melanoma): > 100 µM | GI50 (MOLT-4 leukemia): 4.69 µM and 15 µM | TGI (MOLT-4 leukemia): 20.4 µM and 41 µM | GI50 (MDA-MB-435 melanoma): > 100 µM and 85.3 µM | TGI (MDA-MB-435 melanoma): > 100 µM | GI50 (NCI-H226 lung): 63.2 µM and 65.3 µM | TGI (NCI-H226 lung): > 100 µM | GI50 (SNB-19 CNS): > 100 µM | TGI (SNB-19 CNS): > 100 µM | GI50 (HL-60(TB) leukemia): 3.35 µM and 10.3 µM | TGI (HL-60(TB) leukemia): 24.7 µM and > 100 µM | GI50 (SF-295 CNS): 5.17 µM and 17.9 µM | TGI (SF-295 CNS): > 100 µM | GI50 (EKVX NSCLC): 5.5 µM and 15.9 µM | TGI (EKVX NSCLC): 38.9 µM and 98.9 µM | GI50 (SW-620 colon): 64.3 µM and > 100 µM | TGI (SW-620 colon): > 100 µM | GI50 (A498 renal): 0.286 µM and 1.34 µM | TGI (A498 renal): 2.47 µM and 7.74 µM | GI50 (IGROV1 ovarian): 1.72 µM and 7.93 µM | TGI (IGROV1 ovarian): 7.96 µM and 32.8 µM | GI50 (NCI-H322M lung): 12.5 µM and 38.2 µM | TGI (NCI-H322M lung): 99.7 µM and > 100 µM | GI50 (UACC-257 melanoma): 47.9 µM and > 100 µM | TGI (UACC-257 melanoma): > 100 µM | GI50 (SNB-75 CNS): 0.561 µM and 3.1 µM | TGI (SNB-75 CNS): 25.4 µM and 40.2 µM | GI50 (SK-OV-3 ovarian): 8.17 µM and 16.2 µM | TGI (SK-OV-3 ovarian): > 100 µM | GI50 (HCC-2998 colon): 4.86 µM and 33 µM | TGI (HCC-2998 colon): 75.2 µM and > 100 µM | GI50 (RPMI-8226 leukemia): 11.8 µM and 36.3 µM | TGI (RPMI-8226 leukemia): 24.9 µM and > 100 µM | GI50 (HS 578T breast): 3.8 µM and 13.4 µM | TGI (HS 578T breast): 23.1 µM and 58.3 µM | GI50 (HCT-116 colon): 16.3 µM and 52.1 µM | TGI (HCT-116 colon): > 100 µM | GI50 (UACC-62 melanoma): 9.61 µM and 32.7 µM | TGI (UACC-62 melanoma): > 100 µM | GI50 (TK-10 renal): 7.25 µM and 25.3 µM | TGI (TK-10 renal): > 100 µM | GI50 (NCI/ADR-RES ovarian): > 100 µM | TGI (NCI/ADR-RES ovarian): > 100 µM | GI50 (UO-31 renal): 4.59 µM and 14 µM | TGI (UO-31 renal): > 100 µM and 45.6 µM | GI50 (HOP-92 NSCLC): 8.04 µM and 25.3 µM | TGI (HOP-92 NSCLC): > 100 µM | GI50 (CCRF-CEM leukemia): 23.1 µM and 61.7 µM | TGI (CCRF-CEM leukemia): > 100 µM | GI50 (SK-MEL-5 melanoma): 20.2 µM and 33.2 µM | TGI (SK-MEL-5 melanoma): > 100 µM | GI50 (ACHN renal): 5.56 µM and 17.4 µM | TGI (ACHN renal): > 100 µM | GI50 (T-47D breast): 3.31 µM and 11.2 µM | TGI (T-47D breast): 65 µM and 75.2 µM | GI50 (BT-549 breast): 2.46 µM and 11.6 µM | TGI (BT-549 breast): 45.6 µM and > 100 µM | GI50 (U251 glioblastoma): 67.8 µM and > 100 µM | TGI (U251 glioblastoma): > 100 µM | GI50 (DU-145 prostate): 14.2 µM and 34.2 µM | TGI (DU-145 prostate): > 100 µM | GI50 (SF-268 CNS): 18.5 µM and 49.8 µM | TGI (SF-268 CNS): > 100 µM | GI50 (MDA-MB-231 breast): 22.5 µM and 51.2 µM | TGI (MDA-MB-231 breast): > 100 µM | GI50 ([…]-0 renal): 3.31 µM and 17.8 µM | TGI (786-0 renal): > 100 µM | GI50 (OVCAR-5 ovarian): 18.9 µM and 58.3 µM | TGI (OVCAR-5 ovarian): > 100 µM | GI50 (A549 NSCLC): 16.2 µM and 32.4 µM | TGI (A549 NSCLC): > 100 µM | GI50 (HT29 colon): 9.87 µM and 49.4 µM | TGI (HT29 colon): 29.7 µM and > 100 µM | GI50 (HOP-62 NSCLC): 20.6 µM and 33.5 µM | TGI (HOP-62 NSCLC): > 100 µM | GI50 (SK-MEL-28 melanoma): 6.88 µM and 26.8 µM | TGI (SK-MEL-28 melanoma): > 100 µM | GI50 (OVCAR-3 ovarian): 2.41 µM and 8.56 µM | TGI (OVCAR-3 ovarian): 24.6 µM and > 100 µM | GI50 (MCF7 breast): 3.23 µM and 14.9 µM | TGI (MCF7 breast): > 100 µM | GI50 (RXF 393 renal): 0.266 µM and 1.16 µM | TGI (RXF 393 renal): 3.44 µM and 15 µM | GI50 (K-562 leukemia): 37.8 µM and 78.3 µM | TGI (K-562 leukemia): > 100 µM | GI50 (NCI-H522 lung): 25.2 µM and 57.7 µM | TGI (NCI-H522 lung): > 100 µM | GI50 (NCI-H23 lung): 37.6 µM and > 100 µM | TGI (NCI-H23 lung): > 100 µM | GI50 (PC-3 prostate): 1.86 µM and 4.92 µM | TGI (PC-3 prostate): > 100 µM | GI50 (SR leukemia): 14.3 µM and 21.4 µM | TGI (SR leukemia): 28.4 µM and 62.9 µM
